Assay results taken from the NIST ThermoML archive (doi:10.1016/j.jct.2017.06.001).

Assay: xn = mol fraction of the nth substance listed
Conditions: 293.15 K, 100 kPa, Liquid; for speed of sound: Frequency=5 MHz, Pulse-echo method; for mass density: Vibrating tube method

OCCCCCO [1,5-pentanediol] + O
Conditions | mass density [kg/m3] | speed of sound [m/s]
x1 = 0.005 | 997.92 | –
x1 = 0.0101 | 997.99 | –
x1 = 0.0196 | 998.58 | –
x1 = 0.0251 | 999.15 | –
x1 = 0.0304 | 999.8 | –
x1 = 0.05 | 1001.74 | –
x1 = 0.0769 | 1003.5 | –
x1 = 0.1002 | 1004.72 | –
x1 = 0.1438 | 1005.61 | –
x1 = 0.1548 | – | 1691.8
x1 = 0.1602 | – | 1692.6
x1 = 0.1649 | – | 1693.2
x1 = 0.1671 | – | 1693.5
x1 = 0.1718 | – | 1694
x1 = 0.1738 | – | 1694.1
x1 = 0.1776 | – | 1694.5
x1 = 0.1807 | – | 1694.7
x1 = 0.1845 | 1005.62 | –
x1 = 0.1846 | – | 1694.9
x1 = 0.1875 | – | 1695.1
x1 = 0.19 | – | 1695.2
x1 = 0.1941 | – | 1695.4
x1 = 0.1964 | – | 1695.5
x1 = 0.2006 | – | 1695.5
x1 = 0.2029 | – | 1695.6
x1 = 0.2051 | – | 1695.6
x1 = 0.2087 | – | 1695.7
x1 = 0.2114 | – | 1695.7
x1 = 0.2217 | – | 1695.6
x1 = 0.2315 | – | 1695.4
x1 = 0.2384 | – | 1695.2
x1 = 0.246 | – | 1695
x1 = 0.2503 | 1004.77 | –
x1 = 0.2552 | – | 1694.6
x1 = 0.2648 | – | 1694.1
x1 = 0.2739 | – | 1693.7
x1 = 0.2857 | – | 1693
x1 = 0.2983 | – | 1692.1
x1 = 0.3 | 1003.78 | –
x1 = 0.3133 | – | 1691.1
x1 = 0.3287 | – | 1689.9
x1 = 0.3343 | 1003.14 | –
x1 = 0.3552 | – | 1687.7
x1 = 0.3729 | – | 1686.1
x1 = 0.4002 | – | 1683.5
x1 = 0.4171 | 1001.32 | –
x1 = 0.4241 | – | 1681
x1 = 0.4527 | – | 1677.7
x1 = 0.454 | 1000.44 | –
x1 = 0.478 | – | 1674.7
x1 = 0.5024 | – | 1671.6
x1 = 0.5266 | – | 1668.4
x1 = 0.5491 | – | 1665.3
x1 = 0.5701 | – | 1662.4
x1 = 0.5912 | – | 1659.4
x1 = 0.6123 | – | 1656.4
x1 = 0.631 | – | 1653.7
x1 = 0.656 | – | 1650.2
x1 = 0.6746 | – | 1647.5
x1 = 0.6953 | – | 1644.6
x1 = 0.7147 | – | 1641.9
x1 = 0.7344 | – | 1639.1
x1 = 0.7546 | – | 1636.4
x1 = 0.7797 | – | 1633
x1 = 0.8014 | – | 1630.2
x1 = 0.8265 | – | 1627
x1 = 0.8497 | – | 1624.1
x1 = 0.8696 | – | 1621.6
x1 = 0.9029 | – | 1617.5
x1 = 0.9198 | – | 1615.4
x1 = 0.9259 | – | 1614.7
x1 = 0.9367 | – | 1613.3
x1 = 0.9484 | – | 1611.8
x1 = 0.9601 | – | 1610.3
x1 = 0.97 | – | 1609.1
x1 = 0.9804 | – | 1607.7
x1 = 0.9884 | – | 1606.6
x1 = 0.9943 | – | 1605.8
x1 = 1 | – | 1605
